Source: paper PMC7665192, “A natriuretic peptide from Arabidopsis thaliana (AtPNP-A) can modulate catalase 2 activity” (Scientific Reports, 2020)
Positions of bridges follow the written chain, without caps; N, C: chain ends. Residues, ends and D or L forms follow the SMILES beside them. *: point of attachment. Biotin = O=C1N[C@H]2[C@H](CS[C@H]2CCCCC(=O)*)N1

How the values were obtained:
[1] = tested on: bovine CAT; assay: Isothermal titration calorimetry (ITC); assay type: binding; details: 100 μM pAtPNP-A as titrant, PBS pH 7.4, 25 °C, 30 injections
Procedure: ITC experiments were undertaken using MicroCal iTC200 (Malvern Panalytical) calorimeter. The titrations were conducted at 25 °C in PBS buffer at pH 7.4, with 100 μM pAtPNP-A used as a titrant. Total number of injections was set at 30, reference power was 11 μcal s^−1, initial delay was 60 s, and stirring speed was 750 rpm.

[2] = tested on: A. thaliana (Col-0) mesophyll cell protoplasts; assay: Mesophyll cell protoplast swelling (volume); assay type: cell-based, Arabidopsis thaliana; details: 100 nM peptide or 1 μg mL^−1 rAtPNP-A, 0.4 M mannitol, 20 min, room temperature, n = 50, P < 0.0001
Source text: Peptides containing amino acid sequence of the active region of AtPNP-A and corresponding scrambled peptides, having the same amino acid composition but in a randomized order (Fig. 1a), with or without C-terminal biotin tag, were synthesized by GenScript (Piscataway, USA) at the purity level > 95% verified with HPLC and their biological activity was verified as described previously.
Figure 1 Biologically active peptide containing the active region of AtPNP-A protein binds to CAT2. (a) Domain organization of AtPNP-A and the amino acid sequences of C-terminally biotinylated peptides used in affinity chromatography-based experiments—a peptide containing the active site of AtPNP-A (indicated as pAtPNP-A) or the corresponding scrambled peptide (indicated as pScr). Cysteine residues forming a disulfide bond, characteristic to natriuretic peptide (NP)-like molecules, are underlined. SP, signal peptide. (b) Assaying biological activity of the AtPNP-A peptide (pAtPNP-A) and purified recombinant protein (rAtPNP-A). […] In each treatment, 50 randomly selected protoplasts with diameter > 20 µm were included in quantitative analysis (scale bar = 20 µm). Protoplast volume was measured and the data obtained from an exemplar experiment are plotted. […]

[3] = tested on: CAT2; assay: Protein-peptide cross-linking, affinity-based isolation and LC–MS/MS; assay type: binding, Arabidopsis thaliana; details: biotinylated pAtPNP-A, cross-linking in A. thaliana mesophyll cell protoplasts; data set published in ref 44
Procedure: Cross-linking experiments followed by affinity-based isolation and LC-MS/MS identification of […] interactors were performed on A. thaliana (Col-0) wild type (WT) mesophyll cell protoplasts (MCPs) as described in[44].

[4] = tested on: Calcium-binding EF-hand family protein; assay: Yeast two-hybrid (Y2H) screen; set-up: species or system A. thaliana; details: bait AtPNP-A amino acids 26–130, prey At2g41410.1
Procedure: (§1) The Y2H screen using AtPNP-A as bait was carried out by Dualsystems Biotech AG (Zurich, Switzerland). The bait construct for the screening was made by subcloning the cDNA fragment encoding exported portion of AtPNP-A (amino acids 26 to 130) (Fig. 1a) into the pLexA-DIR vector (Dualsystems Biotech AG). The bait construct was transformed into the strain NMY32 (MATa his3Δ200 trp1-901 leu2-3,112 (lexAop)8-ADE2 LYS2::(lexAop)4-HIS3 URA3::(lexAop)8-lacZ GAL4) using standard procedures. Correct expression of the bait was verified by western blotting of cell extracts using a mouse monoclonal antibody directed against the LexA domain (Dualsystems Biotech AG). The absence of self-activation was verified by co-transformation of the bait together with a control prey and selection on minimal medium lacking tryptophan, leucine, and histidine (selective medium). For the Y2H screen, the bait was co-transformed together with a normalized A. thaliana universal P02403 cDNA library (Dualsystems Biotech AG) into NMY32. 3.1 × 10^6 transformants were screened, yielding 96 transformants that grew on selective medium. […] Library plasmids were isolated from positive clones. The identity of positive interactants was determined by sequencing. DNA sequences translated in all three reading frames and searching against the SwissProt database using the BLASTX algorithm (https://blast.ncbi.nlm.nih.gov).

[5] = tested on: NAD(P)-binding Rossmann-fold superfamily protein; assay: Yeast two-hybrid (Y2H) screen; set-up: species or system A. thaliana; details: bait AtPNP-A amino acids 26–130, prey At1g07440.1
Procedure: as §1

[6] = tested on: SPL8, squamosal promoter binding protein-like 8; assay: Yeast two-hybrid (Y2H) screen; set-up: species or system A. thaliana; details: bait AtPNP-A amino acids 26–130, prey At1g02065.1
Procedure: as §1

[7] = tested on: cGMP; details: cited from earlier work
Source text: Similarly, identification of novel receptors targeted by an increasing number of peptidic plant hormones discovered in the last few decades[8],[9] is anticipated. One of those, the plant natriuretic peptides (PNPs), are a group of systemically mobile signals[10] that have a role in the maintenance of salt and water balance[11],[12]. An A. thaliana PNP, termed AtPNP-A (At2g18660; Q9ZV52), has been implicated in several physiological processes ranging from the regulation of stomatal aperture, osmoticum-dependent volume changes[13],[14] and modulation of developmental stage- and tissue-specif ... || A PNP_CAT interaction in plant responses to infecting pathogens is not surprising. CATs commonly function to down-regulate ROS during ABA-induced stomatal closure, and ABA-induced stomatal closure can be inhibited by removal of H2O2 via CAT2[73],[74]. […] Therefore, it is tempting to speculate that AtPNP-A modulates the effect of ABA on stomatal aperture through the interaction w ...

[8] = tested on: P. syringae; set-up: method as in PMID 32409317, PMID 28401640; details: cited from earlier work

CC(C)C[C@@H]1NC(=O)[C@H](CC(N)=O)NC(=O)[C@H](CC(N)=O)NC(=O)[C@H](CCCCN)NC(=O)[C@H](C(C)C)NC(=O)CNC(=O)[C@H](C(C)C)NC(=O)[C@H](C(C)C)NC(=O)[C@H](CC(C)C)NC(=O)[C@H]([C@@H](C)O)NC(=O)[C@H](CCC(=O)O)NC(=O)[C@H](CCCNC(=N)N)NC(=O)[C@H](CCC(N)=O)NC(=O)[C@H]([C@@H](C)O)NC(=O)CNC(=O)[C@H](Cc2ccc(O)cc2)NC(=O)[C@@H](NC(=O)[C@H](C)NC(=O)[C@H](CO)NC(=O)[C@H](CCCNC(=N)N)NC(=O)[C@@H](NC(=O)[C@H](Cc2ccc(O)cc2)NC(=O)[C@@H]2CCCN2)[C@@H](C)O)CSSC[C@@H](C(=O)NCC(=O)N[C@@H](CCCNC(=N)N)C(=O)N[C@@H](CCCNC(=N)N)C(=O)N[C@@H](Cc2ccc(O)cc2)C(=O)N[C@@H](CCCNC(=N)N)C(=O)N[C@H](C(=O)N[C@@H](CCCNC(=N)N)C(=O)N[C@@H](CCCCNC(=O)CCCC[C@@H]2SC[C@@H]3NC(=O)N[C@@H]32)C(=O)O)C(C)C)NC(=O)[C@H](C)NC(=O)[C@H](CCCNC(=N)N)NC(=O)CNC(=O)[C@H](CC(N)=O)NC(=O)[C@H](CCC(N)=O)NC(=O)[C@H](Cc2c[nH]c3ccccc23)NC1=O [pAtPNP-A] (H-PYTRSACYGTQRETLVVGVKNNLWQNGRACGRRYRVRK(Biotin)-OH; disulfide 7-30; N-terminus and C-terminus assumed)
ITC: conformational changes on binding [1]: significant conformational changes occurring as a result of pAtPNP-A binding to bovine CAT
Protoplast swelling response (volume) [2]: significantly greater than the response elicited by the scrambled peptide (pScr)
Identification of CAT2 by LC–MS/MS [3]: CAT2 was identified by LC–MS/MS only in samples containing pAtPNP-A

AtPNP-A: An A. thaliana PNP, termed AtPNP-A (At2g18660; Q9ZV52)
Strength of binding [4]: Weak
Strength of binding [5]: Moderate
Strength of binding [6]: Weak
Elevation of cGMP [7]: rapid elevation of 3′,5′-cyclic guanosine monophosphate (cGMP)
Role in response to P. syringae infection [8]: protective role in the response to infection with P. syringae
